In this assay the test system is purified E. coli protein synthesis system (PURE). Put plainly: Myc-peptide translation assay. To be noted: MALDI-TOF, assuming similar ionization properties. In kind it is biochemical.

The results in this text go back to paper doi:10.1101/125930v1 (bioRxiv, 2017).

A value given as a limit tells only on which side of the number the result lay.

For `N[C@@H](Cc1ccc(O)cc1)C(=O)O` [^LTyr, L-tyrosine], the consecutive incorporations entry was “up to 3” (in the absence of EF-P) and “up to 7” (with 8 μM EF-P).
`N[C@H](Cc1ccc(O)cc1)C(=O)O` [^DTyr, D-tyrosine]: the consecutive incorporations is no more than 2 (in the absence of EF-P) and no more than 5 (with 8 μM EF-P).
